In patent publication US20090215710A1, “CARBOHYDRATE BASED TOLL-LIKE RECEPTOR (TLR) ANTAGONISTS” (RELIANCE LIFE SCIENCES PVT. LTD., priority 2007, published 2009):

Legend:
TNF = assay: Pre-screen for TNF inhibition activity of synthesized molecules (Table 1); type: cell-based
[1] = Cell viability in pre-screen (Table 1); type: cell-based

Substance: p-Methoxy phenyl-2-deoxy-2-trichloroacetamido-4,6-O-benzylidene-β-D-glucopyranosyl)-(1-4)-O-(2,3-di-O-acetyl-6-O-levulinoyl-β-D-glucopyranoside [RSCL-0635]
- % TNF Inhibition (TNF; 1 uM): 0%
- % TNF Inhibition (TNF; 10 uM): 0%
- % TNF Inhibition (TNF; 50 uM): 0%
- % TNF Inhibition (TNF; 100 uM): 0%
- % Viability ([1]; 1 uM): 97%
- % Viability ([1]; 10 uM): 89%
- % Viability ([1]; 50 uM): 82%
- % Viability ([1]; 100 uM): 81%
